Measurements published in patent publication US5288726A, “Tetrahydrothienopyridine derivatives, furo and pyrrolo analogs thereof and their preparation and uses for inhibiting blood platelet aggregation” (Ube Industries Limited, priority 1991, dated 1994).

Tested on: blood platelet aggregation
Assay: Inhibition of blood platelet aggregation (ex vivo, ADP or collagen induced, rats dosed orally)
Format: in vivo, rat (SD strain, female)
Settings: rat, oral, 4 hours before test, ADP or collagen (inducer not given), read-out: % Inhibition of blood platelet aggregation (Test Ex. 2)
Protocol: Inhibition of Blood Platelet Aggregation Female rats of the SD strain (supplied by Japan Charles River Inc.) were divided into groups of 4 each for the test. […] As a control, a 5% w/v aqueous solution of gum arabic was administered to a control group of rats, without any test drug. Blood platelet aggregation was tested according to the method of P. Lumley and P. P. A. Humphrey [J. Pharmacol. Methods 6, 153-166 (1981)]with a partial modification. […] The blood platelet aggregation rate was calculated from the following equation. […] The inhibitory effect was calculated as the percent inhibition of the treated groups as compared with the control groups.

Work on CC(=O)Oc1cc2c(s1)CCN(C(C(=O)C1CC1)c1ccccc1F)C2 (stereo not drawn) [Compound No. 190, 2-Acetoxy-5-(α-cyclopropylcarbonyl-2-fluorobenzyl)4,5,6,7-tetrahydrothieno[3,2-c]pyridine] yielded an inhibition at 1 mg/kg of 100%.
CCCC(=O)Oc1cc2c(s1)CCN(C(C(=O)C1CC1)c1ccccc1F)C2 (stereo not drawn) [Compound No. 194, 2-Butyryloxy-5-(α-cyclopropylcarbonyl-2-fluorobenzyl)4,5,6,7-tetrahydrothieno[3,2-c]pyridine] was tested, and the inhibition at 1 mg/kg was 100%.
COC(=O)C(c1ccccc1Cl)N1CCc2sccc2C1 (stereo not drawn) [Compound B, 5-(2-chloro-α-methoxycarbonylbenzyl) 4,5,6,7-tetrahydrothieno[3,2-c]pyridine, reference compound] showed an inhibition at 3 mg/kg of 25.7% and an inhibition at 10 mg/kg of 98.8%.
With O=C(C1CC1)C(c1ccccc1F)N1CCc2sccc2C1 (stereo not drawn) [Compound No. 59, 5-(α-Cyclopropylcarbonyl-2-fluorobenzyl)-4,5,6,7-tetrahydrothieno[3,2-c]pyridine] the inhibition at 1 mg/kg was 57.1% and the inhibition at 3 mg/kg was 98.1%.
Clc1ccccc1CN1CCc2sccc2C1 [Compound A, 5 (2-chlorobenzyl)-4,5,6,7-tetrahydrothieno[3,2-c]pyridine, reference compound] gave an inhibition at 30 mg/kg (30 mg/kg (footnote *)) of 3.7%.
Molecule O=C(C1CC1)C(c1ccccc1Cl)N1CCc2sccc2C1 (stereo not drawn) [Compound No. 60, 5-(2-Chloro-α-cyclopropylcarbonylbenzyl)-4,5,6,7-tetrahydrothieno[3,2-c]pyridine] has an inhibition at 3 mg/kg of 74.2% and an inhibition at 10 mg/kg of 100%.
Work on O=C1C=C2CN(C(C(=O)C3CC3)c3ccccc3Cl)CCC2S1 (stereo not drawn) [Compound No. 233, 5-(2-Chloro-α-cyclopropylcarbonylbenzyl)-2-oxo-2,4,5,6,7,7a-hexahydrothieno[3,2-c]pyridine] yielded an inhibition at 10 mg/kg of 98.9%.
CC(C)(C)C(=O)Oc1cc2c(s1)CCN(C(C(=O)C1CC1)c1ccccc1F)C2 (stereo not drawn) [Compound No. 196, 5-(α-Cyclopropylcarbonyl-2-fluorobenzyl)-2-pivaloyloxy-4,5,6,7-tetrahydrothieno[3,2-c]pyridine] was tested, and the inhibition at 1 mg/kg was 97.6%.
With O=C1C=C2CN(C(C(=O)C3CC3)c3ccccc3F)CCC2S1 (stereo not drawn) [Compound No. 235, 5-(α-Cyclopropylcarbonyl-2-fluorobenzyl)-2-oxo-2,4,5,6,7,7a-hexahydrothieno[3,2-c]pyridine] the inhibition at 1 mg/kg was 98.8%.
CCC(=O)C(c1ccccc1F)N1CCc2sccc2C1 (stereo not drawn) [Compound No. 19, 5-(2-Fluoro-α-propionylbenzyl)-4,5,6,7-tetrahydrothieno[3,2-c]pyridine] gave an inhibition at 3 mg/kg of 29.3% and an inhibition at 10 mg/kg of 97.8%.
